According to patent US9273058B2 (BRISTOL-MYERS SQUIBB COMPANY, priority 2013, dated 2016):
Like-named read-outs stand apart in the source and are kept apart here.

Columns and labels:
CK1δ = CK1δ (Homo sapiens, UniProt P48730); test: CK1δ kinase assay (Caliper LabChip electrophoretic separation of fluoresceinated peptide substrate and product); type: biochemical; conditions: 200 pM CK1δ, 50 μM ATP, 1.5 μM peptide, 22 hours at room temperature
In short: (§1)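 Kinase reactions ran 22 h at room temperature, were stopped with EDTA, and phosphorylated product was separated electrophoretically from unphosphorylated fluoresceinated peptide. Compounds were tested at eleven concentrations from 10 mM DMSO stocks. IC50 by non-linear regression.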

CK1ε = CK1ε (Homo sapiens, UniProt P49674); test: CK1ε kinase assay (Caliper LabChip electrophoretic separation of fluoresceinated peptide substrate and product); type: biochemical; conditions: 200 pM CK1ε, 50 μM ATP, 1.5 μM peptide, 22 hours at room temperature
In short: as §1

CK1δ, sequence (P48730 whole entry): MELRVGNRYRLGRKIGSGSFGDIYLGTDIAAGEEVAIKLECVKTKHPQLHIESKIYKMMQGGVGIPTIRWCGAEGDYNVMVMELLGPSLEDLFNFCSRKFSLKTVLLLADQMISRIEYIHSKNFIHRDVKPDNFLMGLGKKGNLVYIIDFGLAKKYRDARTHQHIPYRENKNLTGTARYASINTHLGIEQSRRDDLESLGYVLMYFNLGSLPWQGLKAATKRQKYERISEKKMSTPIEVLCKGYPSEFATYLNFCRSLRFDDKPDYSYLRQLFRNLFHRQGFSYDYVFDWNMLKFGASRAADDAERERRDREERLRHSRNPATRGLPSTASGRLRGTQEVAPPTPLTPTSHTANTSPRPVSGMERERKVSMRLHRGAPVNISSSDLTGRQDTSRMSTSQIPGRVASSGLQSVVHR
CK1ε, sequence (P49674 whole entry): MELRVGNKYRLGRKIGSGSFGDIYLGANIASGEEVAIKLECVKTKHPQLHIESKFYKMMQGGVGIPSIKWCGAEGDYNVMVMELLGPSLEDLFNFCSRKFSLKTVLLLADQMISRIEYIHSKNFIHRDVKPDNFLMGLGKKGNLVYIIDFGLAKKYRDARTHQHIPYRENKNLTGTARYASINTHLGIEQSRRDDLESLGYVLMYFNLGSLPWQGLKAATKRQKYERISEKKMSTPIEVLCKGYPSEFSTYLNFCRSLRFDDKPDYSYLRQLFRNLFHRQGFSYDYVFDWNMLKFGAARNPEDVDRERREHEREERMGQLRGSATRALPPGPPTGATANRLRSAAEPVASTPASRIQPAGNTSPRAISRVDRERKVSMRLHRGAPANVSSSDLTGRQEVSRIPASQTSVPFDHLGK

Row | IC50 (CK1δ; read-out: CK1δ IC50 range) [nM] | IC50 (CK1ε; read-out: CK1ε IC50 range) [nM] | IC50 (CK1δ; read-out: CK1δ) [nM] | IC50 (CK1ε; read-out: CK1ε) [nM] | Compound
1 | 0.01 to 10 | 0.01 to 10 |  |  | CC1(C)CC(NC(=O)N2CCn3nc(-c4ccc(Cl)c(Cl)c4)c(C(N)=O)c3C2)C1 [Compound 287, 2-(3,4-Dichlorophenyl)-N^5-(3,3-dimethylcyclobutyl)-6,7-dihydropyrazolo[1,5-a] pyrazine-3,5(4H)-dicarboxamide]
2 | 0.01 to 10 | 0.01 to 10 |  |  | CC(C)(NC(=O)N1CCn2nc(-c3ccc(Cl)c(Cl)c3)c(C(N)=O)c2C1)c1ccc(C#N)cc1 [Compound 200, N^5-(2-(4-Cyanophenyl)propan-2-yl)-2-(3,4-dichlorophenyl)-6,7-dihydropyrazolo[1,5-a] pyrazine-3,5(4H)-dicarboxamide]
3 | 0.01 to 10 | 0.01 to 10 |  |  | CC(C)(NC(=O)N1CCn2nc(-c3cccc(Cl)c3)c(C(N)=O)c2C1)C1CC(F)(F)C1 [Compound 227, 2-(3-Chlorophenyl)-N^5-(2-(3,3-difluorocyclobutyl)propan-2-yl)-6,7-dihydropyrazolo[1,5-a] pyrazine-3,5(4H)-dicarboxamide]
4 | 0.01 to 10 | 0.01 to 10 |  |  | NC(=O)c1c(-c2ccc(F)c(Cl)c2)nn2c1CN(C(=O)NC13CCC(F)(CC1)CC3)CC2 [Compound A54, 2-(3-Chloro-4-fluorophenyl)-N^5-(4-fluorobicyclo[2.2.2]octan-1-yl)-6,7-dihydropyrazolo[1,5-a]pyrazine-3,5(4H)-dicarboxamide]
5 | 0.01 to 10 | 0.01 to 10 | 2.6 | 5 | N#Cc1ccc(NC(=O)N2CCn3nc(-c4cccc(F)c4)c(C(N)=O)c3C2)cc1 [Compound 61, N^5-(4-Cyanophenyl)-2-(3-fluorophenyl)-6,7-dihydropyrazolo[1,5-a]pyrazine-3,5(4H)-dicarboxamide]
6 | 0.01 to 10 | 0.01 to 10 |  |  | NC(=O)c1c(-c2cccc(Cl)c2)nn2c1CN(C(=O)NC1CC(F)(F)C1)CC2CF (single isomer, unassigned) [Compound A113, 2-(3-Chlorophenyl)-N^5-(3,3-difluorocyclobutyl)-7-(fluoromethyl)-6,7-dihydropyrazolo[1,5-a]pyrazine-3,5(4H)-dicarboxamide]
7 | 0.01 to 10 | 0.01 to 10 |  |  | CC(C)(NC(=O)N1CCn2nc(-c3ccc(Cl)c(Cl)c3)c(C(N)=O)c2C1)C1CCC(F)(F)CC1 [Compound 234, 2-(3,4-Dichlorophenyl)-N^5-(2-(4,4-difluorocyclohexyl)propan-2-yl)-6,7-dihydropyrazolo[1,5-a] pyrazine-3,5(4H)-dicarboxamide]
8 | 0.01 to 10 | 0.01 to 10 |  |  | NC(=O)c1c(-c2ccc(F)c(Cl)c2)nn2c1CN(C(=O)NC1CC3(C1)CC(F)(F)C3)CC2 [Compound 196, 2-(3-Chloro-4-fluorophenyl)-N^5-(6,6-difluorospiro[3.3]heptan-2-yl)-6,7-dihydropyrazolo[1,5-a] pyrazine-3,5(4H)-dicarboxamide]
9 | 0.01 to 10 | 0.01 to 10 |  |  | N^5-(tert-Butyl)-2-(3-chloro-4-fluorophenyl)-7-(2-cyanoethyl)-6,7-dihydropyrazolo[1,5-a]pyrazine-3,5(4H)-dicarboxamide [Compound A104]
10 | 0.01 to 10 | 0.01 to 10 |  |  | CO[C@H]1C[C@H](NC(=O)N2CCn3nc(-c4cccc(Cl)c4)c(C(N)=O)c3C2)C1 [Compound 178, 2-(3-Chlorophenyl)-N^5-((1r,3r)-3-methoxycyclobutyl)-6,7-dihydropyrazolo [1,5-a]pyrazine-3,5(4H)-dicarboxamide]
11 | 0.01 to 10 | 0.01 to 10 |  |  | NC(=O)c1c(-c2cccc(Cl)c2)nn2c1CN(C(=O)NCC1CC(F)(F)C1)CC2 [Compound 179, 2-(3-Chlorophenyl)-N^5-((3,3-difluorocyclobutyl)methyl)-6,7-dihydropyrazolo[1,5-a]pyrazine-3,5(4H)-dicarboxamide]
12 | 0.01 to 10 | 0.01 to 10 |  |  | C[C@@]12C[C@H]3C[C@@](Cl)(C1)C[C@](NC(=O)N1CCn4nc(-c5ccc(F)c(Cl)c5)c(C(N)=O)c4C1)(C3)C2 [Compound A69, 2-(3-Chloro-4-fluorophenyl)-N^5-((1S,3R,5S,7R)-3-chloro-5-methyladamantan-1-yl)-6,7-dihydropyrazolo[1,5-a]pyrazine-3,5(4H)-dicarboxamide]

Second part, the compound before the results:

Row | Compound | IC50 (CK1δ; read-out: CK1δ IC50 range) [nM] | IC50 (CK1ε; read-out: CK1ε IC50 range) [nM] | IC50 (CK1δ; read-out: CK1δ) [nM] | IC50 (CK1ε; read-out: CK1ε) [nM]
13 | CC(=O)N1CC2(C1)CN(C(=O)NC(C)(C)C)Cc1c(C(N)=O)c(-c3ccc(F)c(Cl)c3)nn12 [Compound A135, 1-Acetyl-N^5′-(tert-butyl)-2′-(3-chloro-4-fluorophenyl)-4′H-spiro[azetidine-3,7′-pyrazolo[1,5-a]pyrazine]-3′,5′(6′H)-dicarboxamide] | 0.01 to 10 | 0.01 to 10 |  | 
14 | CC(C)(C)NC(=O)N1Cc2c(C(N)=O)c(-c3ccc(F)c(Cl)c3)nn2C2(CC2)C1 [Compound A132, N^5-(tert-Butyl)-2′-(3-chloro-4-fluorophenyl)-4′H-spiro[cyclopropane-1,7′-pyrazolo[1,5-a]pyrazine]-3′,5′(6′H)-dicarboxamide] | 0.01 to 10 | 0.01 to 10 |  | 
15 | NC(=O)c1c(-c2ccc(F)c(Cl)c2)nn2c1CN(C(=O)N[C@H]1C[C@H](F)C1)CC2 [Compound 189, 2-(3-Chloro-4-fluorophenyl)-N^5-((1r,3r)-3-fluorocyclobutyl)-6,7-dihydropyrazolo[1,5-a] pyrazine-3,5(4H)-dicarboxamide] | 0.01 to 10 | 0.01 to 10 |  | 
16 | CC1CC(NC(=O)N2CCn3nc(-c4ccc(Cl)c(Cl)c4)c(C(N)=O)c3C2)C1 (single isomer, unassigned) [Compound 249, 2-(3,4-Dichlorophenyl)-N^5-(3-methylcyclobutyl)-6,7-dihydropyrazolo[1,5-a]pyrazine-3,5(4H)-dicarboxamide] | 0.01 to 10 | 0.01 to 10 |  | 
17 | NC(=O)c1c(-c2cccc(F)c2)nn2c1CN(C(=O)NC1CC1)CC2 [Compound 7, N^5-Cyclopropyl-2-(3-fluorophenyl)-6,7-dihydropyrazolo[1,5-a]pyrazine-3,5(4H)-dicarboxamide] | 10 to 100 | 10 to 100 |  | 
18 | NC(=O)c1c(-c2cccc(Cl)c2)nn2c1CN(C(=O)NC13C4C5C6C4C1C6C53)CC2 (stereo not shown) [Compound A86, N^5-(Cuban-1-yl)-2-(3-chlorophenyl)-6,7-dihydropyrazolo[1,5-a]pyrazine-3,5(4H)-dicarboxamide] | 0.01 to 10 | 0.01 to 10 |  | 
19 | CC1Cn2nc(-c3ccc(F)c(Cl)c3)c(C(N)=O)c2CN1C(=O)NC(C)(C)C (single isomer, unassigned) [Compound 340, N^5-(tert-Butyl)-2-(3-chloro-4-fluorophenyl)-6-methyl-6,7-dihydropyrazolo[1,5-a]pyrazine-3,5(4H)-dicarboxamide] | 0.01 to 10 | 10 to 100 |  | 
20 | CC(C)(C)NC(=O)N1Cc2c(C(N)=O)c(-c3ccc(Cl)c(Cl)c3)nn2C(C(C)(C)O)C1 (stereo not shown) [Compound A37, N^5-(tert-Butyl)-2-(3,4-dichlorophenyl)-7-(2-hydroxypropan-2-yl)-6,7-dihydropyrazolo[1,5-a]pyrazine-3,5(4H)-dicarboxamide] | 10 to 100 | 0.01 to 10 |  | 
21 | CC(C)(C)NC(=O)N1Cc2c(C(N)=O)c(-c3cccc(Cl)c3)nn2C2(CC2)C1 [Compound A129, N^5-(tert-Butyl)-2′-(3-chlorophenyl)-4′H-spiro[cyclopropane-1,7′-pyrazolo[1,5-a]pyrazine]-3′,5′(6′H)-dicarboxamide] | 0.01 to 10 | 0.01 to 10 |  | 
22 | NC(=O)c1c(-c2cccc(Cl)c2)nn2c1CN(C(=O)N[C@H]1C[C@@H]3[C@H](C1)C3(F)F)CC2 [Compound 184, 2-(3-Chlorophenyl)-N^5-((1R,3r,5S)-6,6-difluorobicyclo[3.1.0]hexan-3-yl)-6,7-dihydropyrazolo[1,5-a]pyrazine-3,5(4H)-dicarboxamide] | 0.01 to 10 | 0.01 to 10 |  | 
23 | CC(C)(CC#N)NC(=O)N1CCn2nc(-c3ccc(F)c(Cl)c3)c(C(N)=O)c2C1 [Compound 186, 2-(3-Chloro-4-fluorophenyl)-N^5-(1-cyano-2-methylpropan-2-yl)-6,7-dihydropyrazolo [1,5-a]pyrazine-3,5(4H)-dicarboxamide] | 0.01 to 10 | 0.01 to 10 |  | 
24 | CC(C)(C)NC(=O)N1Cc2c(C(N)=O)c(-c3ccc(F)c(Cl)c3)nn2C2(C1)CC(F)(F)C2 [Compound A39, N^5′-(tert-Butyl)-2′-(3-chloro-4-fluorophenyl)-3,3-difluoro-4′H-spiro[cyclobutane-1,7′-pyrazolo[1,5-a]pyrazine]-3′,5′(6′H)-dicarboxamide] | 0.01 to 10 | 0.01 to 10 |  | 
25 | NC(=O)c1c(-c2ccc(F)c(Cl)c2)nn2c1CN(C(=O)NC13CCC(F)(CC1)C3)CC2 [Compound A137, 2-(3-Chloro-4-fluorophenyl)-N^5-(4-fluorobicyclo[2.2.1]heptan-1-yl)-6,7-dihydropyrazolo[1,5-a]pyrazine-3,5(4H)-dicarboxamide] | 0.01 to 10 | 0.01 to 10 |  | 
26 | CC(C)(C)NC(=O)N1CCn2nc(-c3ccc(S(C)(=O)=O)cc3)c(C(N)=O)c2C1 [Compound 144, N^5-(tert-Butyl)-2-(4-(methylsulfonyl)phenyl)-6,7-dihydropyrazolo[1,5-a] pyrazine-3,5(4H)-dicarboxamide] | 100 to 2000 | 100 to 2000 |  | 
27 | CC1CN(C(=O)NC(C)(C)C)Cc2c(C(N)=O)c(-c3ccc(Cl)c(Cl)c3)nn21 (stereo not shown) [Compound A33, N^5-(tert-Butyl)-2-(3,4-dichlorophenyl)-7-methyl-6,7-dihydropyrazolo[1,5-a]pyrazine-3,5(4H)-dicarboxamide] | 0.01 to 10 | 0.01 to 10 |  | 
28 | COc1ccc([C@H]2C[C@@H](NC(=O)N3CCn4nc(-c5cccc(Cl)c5)c(C(N)=O)c4C3)C2)cc1 [Compound 281, 2-(3-Chlorophenyl)-N^5-((1s,3s)-3-(4-methoxyphenyl)cyclobutyl)-6,7-dihydropyrazolo[1,5-a] pyrazine-3,5(4H)-dicarboxamide] | 0.01 to 10 | 0.01 to 10 |  | 
